This is an account of results in patent US20140243415A1, “COMPOUNDS INHIBITING GALECTIN-1 EXPRESSION, CANCER CELL PROLIFERATION, INVASION, AND TUMORIGENESIS” (ONCOETHIX SA, priority 2011, published 2014).

In one assay the test system is B16 melanoma. Conditions: syngeneic mouse B16 melanoma model; cited from earlier work.
Assay [1] relates to human ovarian carcinoma MA148 xenografts. Conditions: cited from earlier work.
The subject of assay [2] is panel of human cancer cell lines. In words: MTT cell cytotoxicity assay, cell line panel. The format is cell-based. The note with it: cultured cancer cells. The method, then:
Cell survival was determined using the MTT assay (3-[4,5-dimethylthiazol-2-yl]-2,5-diphenyltetrazolium bromide; Sigma, Saint-Quentin Fallavier, France). The conversion of yellow water-soluble tetrazolium MTT into purple insoluble formazan is catalyzed by mitochondrial dehydrogenases and used to estimate the number of viable cells. In brief, cells were seeded in 96-well tissue culture plates at a density of 2×10^3 cells/well. After 72 h drug exposure and 48 h wash-out, cells were incubated with 0.4 mg/ml MTT for 4 hours at 37° C. After incubation, the supernatant was discarded, insoluble formazan precipitates were dissolved in 0.1 ml of DMSO and the absorbance was measured at 560 nm by use of a microplate reader (Thermo, France). […] IC50's were determined as the halves of maximal inhibitory drug concentration for each cell line.
The antiproliferative effects of OTX-008 and anginex were assessed using MTT assay in a panel of human cancer cell lines of human origins expressing various levels of Lgals-1 mRNA and galectin-1 protein expressions (Supplementary Table 1). […] No correlation between mRNA expressions of galectin-2, galectin-3, and galectin-8 as well as semaphorin-3A, semaphorin-3B, neuropilin-1, VEGFR1-3, VEGFA-D, and PDGFRa&P3 and sensitivity to OTX-008 were detected in the panel.
(Tetrazolium assays rely on reduction of a dye to a coloured formazan, in cell work by metabolically active cells.)

Assay [3] deals with SQ20B cells. In words: In vitro growth inhibition assay. The format is cell-based, human. The note with it: growth at day 6. The method, then:
(§1) FIG. 5. Modulation of the galectin-1/semaphorin-3A/neuropilin system in SQ20B cells. A—Effects of galectin-1 (Gall), semaphorin-3A (Sema3A), lactose, with or without four different concentrations of OTX-008 on SQ20B growth at day 6. Embedded figure: Proliferation assay of SQ20B and SQ-shGAL1. B—In vitro matrigel invasion assay of SQ20B exposed to […] galectin-1, 1 μg/ml semaphorin-3A, 200 ng/ml lactose or 10 μM UO126 with or without 3 μM OTX-008. Embedded figure: In vitro matrigel invasion assay of SQ20B and SQ-shGAL1. Invasion was quantified after 48 h by counting the average number of invaded cells.
For proliferation assay, cells were seeded in 96-well tissue culture plates at a density of 1.5×10^3 cells/well. MTT assay was conducted daily to determine the number of viable cells in untreated control and treated group. Growth inhibition curves were plotted as a percentage of cells for each experimental condition.
(§2) Galectin-1 may form extracellular lattices counteracting the inhibitory properties of semaphorin-3A on neuropilin-1, eventually leading to the modulation of the vascular endothelial growth factor (VEGFR) and platelet derived growth factor (PDGFR) receptors, fibronectin, and laminin activity SQ20B cells expressed significant mRNA and protein levels of semaphorin-3A and neuropilin-1, PDGFRa&(, VEGF A-D, and VEGFR1-3 (Supplementary FIG. 2A). Thus, SQ20B cells were selected to evaluate the effects of OTX-008 on galectin-1/semaphorin-3A interactions. No difference between SQ20B cells growing in plastic or fibronectin- and laminin-coated plates. […] Galectin-1 and semaphorin-3A induced invasion was inhibited by OTX-008 mimicking the effects of lactose in this model.

Assay [4] concerns SQ20B cells. In words: Matrigel invasion assay. The format is cell-based, human. Conditions: for invasion of SQ20B cells, agent alone: 48 h, 1 g/ml galectin-1, 1 μg/ml semaphorin-3A, 10 μM UO126, 3 μM OTX-008. The method, then: as §1
8 μm membranes were coated with Matrigel (50 μg). The inserts were placed within a 24-well chamber containing 0.6 ml of RPMI 1640 medium with 20% fetal bovine serum as chemoattractant. 10^5 cells were seeded into the inserts suspended in 0.3 ml of serum-free RPMI. After incubation for 48 h at 37° C., the upper surface of the filter was scraped to remove non-invasive cells. Invasive cells were fixed and stained with a Diff Quik detection Kit (Dade Behring, Paris, France). For quantification, the average number of invading cells per field was assessed by counting 9 random fields under a light microscope (400×).
as §2

In another assay the target is T1, galectin-1 (Homo sapiens, UniProt P09382).
T1 construct: Western Blot of galectin-1 on SQ20B cells treated with 3 μM OTX-008 for 24 h, 48 h and 72 h; endogenous in cells; host or cells: SQ20B (ATCC)
T1 sequence (P09382 whole entry): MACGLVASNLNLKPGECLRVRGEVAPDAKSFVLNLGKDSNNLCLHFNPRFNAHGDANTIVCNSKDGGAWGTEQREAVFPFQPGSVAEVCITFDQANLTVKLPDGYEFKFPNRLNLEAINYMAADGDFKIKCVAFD
In words: Western blot of galectin-1 in SQ20B cells. The note with it: Bortezomib 10 nM with 3 μM OTX-008, 48 h. It is filed as cell-based. The method, then:
FIG. 3. Effects of OTX-008 on galectin-1 expression and localization. A—Western Blot of galectin-1 on SQ20B cells treated with 3 μM OTX-008 for 24 h, 48 h and 72 h. B and C—Immunofluorescence of galectin-1 on SQ20B cells treated with 3 μM OTX-008 for 24 and 48 h. B—OTX-008 treatment decreases galectin-1 immunostaining in SQ20B cells. C—Galectin-1 translocates into the nucleus after OTX-008 exposure. D—Western Blot of p-AKTser473, AKT, p-S6, p-ERK1/2, ERK and p-PKCα in SQ20B cells treated with 3 μM OTX-008 for 10 min, 1 h, 2 h, 5 h and 24 h.
FIG. 4. OTX-008-induced galectin-1 oxydation and degradation by the proteosome system A—Western Blot of galectin-1 on SQ20B cells treated 48 h with 10 μM N-acetylcysteine (NAC), 55 μM β-mercaptoethanol (βME), 1 mM Tempol and 10 μM co-enzyme Q10 (Q10) with or without 3 μM OTX-008. B—Western Blot of galectin-1 on SQ20B cells treated 48 h with 3 μM OTX-008, pretreated 2 h with proteasome inhibitor Bortezomib (10 nM) and then treated 48 h with 3 μM OTX-008 (BTZ—OTX-008) or treated 48 h with 10 nM Bortezomib+3 μM OTX-008 (BTZ+OTX-008).
Cells were lysed in buffer containing 50 mM HEPES (pH 7.6), 150 mM NaCl, 1% Triton X-100, 2 mM sodium vanadate, 100 mM NaF, and 0.4 mg/ml phenylmethylsulfonyl fluoride. Equal amounts of protein (30 μg/lane) were subjected to SDS-PAGE and transferred to nitrocellulose membranes. […]
On the technique in general: A western blot detects proteins with antibodies after separation by electrophoresis.

In the next assay the test system is cdc2 (tyrosine 15). In words: Western blot of phosphorylated cdc2 in SQ20B. The format is cell-based, human. The note with it: pretreated 2 h with UO126 then OTX-008 72 hours. The method, then: Cells were lysed in buffer containing 50 mM HEPES (pH 7.6), 150 mM NaCl, 1% Triton X-100, 2 mM sodium vanadate, 100 mM NaF, and 0.4 mg/ml phenylmethylsulfonyl fluoride. Equal amounts of protein (30 μg/lane) were subjected to SDS-PAGE and transferred to nitrocellulose membranes. Membranes were blocked with 5% milk in 0.05% Tween 20/phosphate-buffered saline and then incubated with the primary antibody overnight. Membranes were then washed and incubated with the secondary antibody conjugated to horseradish peroxidase. Bands were visualized by using the enhanced chemiluminescence Western blotting detection system. Densitometric analysis was performed under conditions that yielded a linear response. The following antibodies were used: anti-p-cdc2 (tyr15), anti-p-wee1 (ser642), anti-p-p44/42 MAPK (thr202/tyr204), anti-p44/42, anti-p-AKT (ser473), anti-AKT, anti-p-S6 (ser235/236) (Cell Signaling, Saint Quentin Yvelines, France), anti-p-PKCα (ser657) (BD Biosciences, Le-Pont-de-Claix, France) and anti-galectin-1 (Abcam, Cambridge, Mass., USA). All antibodies were used at a 1:1000 dilution.
To study the mechanism of OTX-008-induced inhibition of cell proliferation, the effect of OTX-008 on cell cycle in SQ20B cells was examined (FIG. 5B). […] Activation of cdc2 (cdk1) by de-phosphorylation of tyrosine 15 is required for G2/M transition. […]

Regarding anginex, the antitumor activity entry (with B16 melanoma; in assay [1]) was “antitumor activity” each time. Further, the “antiproliferative effects (MTT)” value in assay [2] was “limited effects”.

Regarding “galectin-1: Recombinant galectin-1 purchased from R&D Systems”, the “SQ20B cell proliferation, exogenous agent alone” value (from here on “SQ20B cell proliferation”) with SQ20B cells [3] is “had not effects”. The “invasion of SQ20B cells, agent alone” value in the assay on SQ20B cells [4] is reported as “enhance invasion”.

On to `CC(C)C[C@H](NC(=O)[C@H](Cc1ccccc1)NC(=O)c1cnccn1)B(O)O` [bortezomib, reference compound], for which, at galectin-1, the “effect of proteasome inhibition on OTX-008-induced galectin-1 decrease” value is recorded as “counteracts the inhibitory effects of OTX-008 on galectin-1 expression”.

`OC[C@H]1O[C@@H](O[C@H]2[C@H](O)[C@@H](O)C(O)O[C@@H]2CO)[C@H](O)[C@@H](O)[C@H]1O` (stereo partly drawn) [lactose, reference compound]: the “SQ20B cell proliferation” value in the assay with SQ20B cells [3] is “significant inhibition of cellular proliferation”. Further, the “invasion, lactose combined with OTX-008” value in the assay with SQ20B cells [4] (SQ20B, 200 ng/ml lactose with 3 μM OTX-008) is given as “prevents the inhibition of invasion induced by OTX-008”.

As to `N#CC(=C(/N)Sc1ccccc1N)/C(C#N)=C(/N)Sc1ccccc1N` [UO126, reference compound], in the assay on cdc2 (tyrosine 15), the “OTX-008-mediated cdc2 phosphorylation after UO126 pretreatment” value is listed as “inhibited the increase of cdc2 phosphorylation”. For the same molecule, in the assay with SQ20B cells [4], the “invasion of SQ20B cells, agent alone” value is reported as “neither impact cellular invasion alone”.

B1: semaphorin-3A: Recombinant semaphorin-3A purchased from R&D Systems (protein, UniProt Q14563 21-771, looked up)
Semaphorin-3A: NYQNGKNNVPRLKLSYKEMLESNNVITFNGLANSSSYHTFLLDEERSRLYVGAKDHIFSFDLVNIKDFQKIVWPVSYTRRDECKWAGKDILKECANFIKVLKAYNQTHLYACGTGAFHPICTYIEIGHHPEDNIFKLENSHFENGRGKSPYDPKLLTASLLIDGELYSGTAADFMGRDFAIFRTLGHHHPIRTEQHDSRWLNDPKFISAHLISESDNPEDDKVYFFFRENAIDGEHSGKATHARIGQICKNDFGGHRSLVNKWTTFLKARLICSVPGPNGIDTHFDELQDVFLMNFKDPKNPVVYGVFTTSSNIFKGSAVCMYSMSDVRRVFLGPYAHRDGPNYQWVPYQGRVPYPRPGTCPSKTFGGFDSTKDLPDDVITFARSHPAMYNPVFPMNNRPIVIKTDVNYQFTQIVVDRVDAEDGQYDVMFIGTDVGTVLKVVSIPKETWYDLEEVLLEEMTVFREPTAISAMELSTKQQQLYIGSTAGVAQLPLHRCDIYGKACAECCLARDPYCAWDGSACSRYFPTAKRRTRRQDIRNGDPLTHCSDLHHDNHHGHSPEERIIYGVENSSTFLECSPKSQRALVYWQFQRRNEERKEEIRVDDHIIRTDQGLLLRSLQQKDSGNYLCHAVEHGFIQTLLKVTLEVIDTEHLEELLHKDDDGDGSKTKEMSNSMTPSQKVWYRDFMQLINHPNLNTMDEFCEQVWKRDRKQRRQRPGHTPGNSNKWKHLQENKKGRNRRTHEFERAPRSV
As for B1, the “SQ20B cell proliferation” value with SQ20B cells [3] is recorded as “concentration-dependent inhibition of cellular proliferation”. Besides, in the assay with SQ20B cells [4], the “invasion of SQ20B cells, agent alone” value was “enhance invasion”.
